Activity calls are given as the source filed them.
Assays:
[1] = biological target: T1, Heat shock factor protein 1 (Mus musculus, UniProt P38532); assay: decrease of HSF1-responsive luciferase luminescence – cell-based, NIH3T3, dose retest, confirmation (AID 2382); format: functional;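 also: NIH3T3 fibroblasts with HSF1-driven luciferase reporter stressed by proteasome inhibitor MG132; luminescence from HSF1-driven luciferase expression after 8 hours of MG132 stress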
T1 sequence (P38532 whole entry): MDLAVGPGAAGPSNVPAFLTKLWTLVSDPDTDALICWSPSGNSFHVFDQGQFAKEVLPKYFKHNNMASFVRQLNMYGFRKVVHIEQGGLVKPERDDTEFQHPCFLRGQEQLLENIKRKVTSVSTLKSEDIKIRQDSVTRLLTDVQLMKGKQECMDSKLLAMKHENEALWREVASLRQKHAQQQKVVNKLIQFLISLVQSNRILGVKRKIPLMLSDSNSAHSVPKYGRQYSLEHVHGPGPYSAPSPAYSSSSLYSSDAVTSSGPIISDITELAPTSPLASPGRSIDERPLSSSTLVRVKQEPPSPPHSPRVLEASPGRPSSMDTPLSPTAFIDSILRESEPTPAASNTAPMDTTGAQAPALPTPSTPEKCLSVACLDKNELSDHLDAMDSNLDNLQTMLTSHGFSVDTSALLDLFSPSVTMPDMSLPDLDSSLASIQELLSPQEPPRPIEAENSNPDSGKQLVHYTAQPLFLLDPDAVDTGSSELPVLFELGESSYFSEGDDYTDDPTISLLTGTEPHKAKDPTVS

[2] = biological target: T2, Estrogen receptor (Homo sapiens, UniProt P03372); assay: ERα coactivator recruitment enhancers – biochemical, TR-FRET, ERα LBD, dose response (AID 737)
T2 sequence (P03372 whole entry): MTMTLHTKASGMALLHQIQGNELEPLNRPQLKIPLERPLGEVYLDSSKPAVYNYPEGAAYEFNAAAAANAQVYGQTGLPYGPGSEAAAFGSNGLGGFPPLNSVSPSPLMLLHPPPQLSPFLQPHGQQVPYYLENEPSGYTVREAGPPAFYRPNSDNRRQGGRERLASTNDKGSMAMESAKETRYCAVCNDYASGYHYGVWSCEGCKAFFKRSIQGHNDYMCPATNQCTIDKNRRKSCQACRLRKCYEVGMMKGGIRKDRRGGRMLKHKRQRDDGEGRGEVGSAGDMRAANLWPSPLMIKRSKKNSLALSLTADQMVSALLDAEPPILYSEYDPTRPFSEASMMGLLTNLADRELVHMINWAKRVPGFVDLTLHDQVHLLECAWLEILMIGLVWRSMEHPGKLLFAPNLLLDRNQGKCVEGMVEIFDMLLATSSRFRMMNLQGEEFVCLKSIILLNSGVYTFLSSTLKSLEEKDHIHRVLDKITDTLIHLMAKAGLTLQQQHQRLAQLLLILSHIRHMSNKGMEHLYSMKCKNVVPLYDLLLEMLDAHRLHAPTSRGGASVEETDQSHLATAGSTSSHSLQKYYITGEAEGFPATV

[3] = biological target: Protein disulfide-isomerase (Homo sapiens, UniProt P07237); assay: inhibition of PDI-driven insulin aggregation – biochemical, turbidity, absorbance, cherry-picked samples, dose response (AID 602350); format: functional
Chain of Protein disulfide-isomerase (P07237 whole entry): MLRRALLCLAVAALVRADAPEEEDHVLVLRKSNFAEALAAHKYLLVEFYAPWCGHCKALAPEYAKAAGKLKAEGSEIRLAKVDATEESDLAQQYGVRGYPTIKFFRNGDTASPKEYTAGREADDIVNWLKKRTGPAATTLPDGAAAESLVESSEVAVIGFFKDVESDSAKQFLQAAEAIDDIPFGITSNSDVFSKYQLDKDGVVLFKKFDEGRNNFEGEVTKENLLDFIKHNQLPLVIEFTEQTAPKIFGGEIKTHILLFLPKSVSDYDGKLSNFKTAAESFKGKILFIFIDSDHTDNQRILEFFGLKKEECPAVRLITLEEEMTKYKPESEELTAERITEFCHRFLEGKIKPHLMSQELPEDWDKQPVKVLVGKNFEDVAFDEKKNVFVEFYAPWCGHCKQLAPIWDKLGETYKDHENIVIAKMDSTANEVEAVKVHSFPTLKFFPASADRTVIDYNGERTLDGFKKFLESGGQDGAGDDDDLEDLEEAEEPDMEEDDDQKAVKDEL

[4] = luciferase reporter signal suppression in cells – H4 neuroglioma cells, luminescence, dose response (AID 1990); format: functional, cell-based
[5] = Luminescence Cell-Based Dose Response HTS to Identify Inhibitors of 5'UTR Stem-Loop Driven Prion Protein mRNA Translation in H4 Neuroglioblastoma Cells. [Related pubchem assays: 1827 (Project Summary), 1813 (Primary HTS)]; format: functional
[6] = alpha-synuclein stem-loop luciferase translation blockers – H4 neuroglioma cells, luminescence, confirmation (AID 1988); format: functional, cell-based
[7] = biological target: T3, Luciferin 4-monooxygenase (Photinus pyralis, UniProt P08659); assay: inhibition of purified Photinus pyralis luciferase – biochemical, luminescence, dose response (AID 1891)
T3 sequence (P08659 whole entry): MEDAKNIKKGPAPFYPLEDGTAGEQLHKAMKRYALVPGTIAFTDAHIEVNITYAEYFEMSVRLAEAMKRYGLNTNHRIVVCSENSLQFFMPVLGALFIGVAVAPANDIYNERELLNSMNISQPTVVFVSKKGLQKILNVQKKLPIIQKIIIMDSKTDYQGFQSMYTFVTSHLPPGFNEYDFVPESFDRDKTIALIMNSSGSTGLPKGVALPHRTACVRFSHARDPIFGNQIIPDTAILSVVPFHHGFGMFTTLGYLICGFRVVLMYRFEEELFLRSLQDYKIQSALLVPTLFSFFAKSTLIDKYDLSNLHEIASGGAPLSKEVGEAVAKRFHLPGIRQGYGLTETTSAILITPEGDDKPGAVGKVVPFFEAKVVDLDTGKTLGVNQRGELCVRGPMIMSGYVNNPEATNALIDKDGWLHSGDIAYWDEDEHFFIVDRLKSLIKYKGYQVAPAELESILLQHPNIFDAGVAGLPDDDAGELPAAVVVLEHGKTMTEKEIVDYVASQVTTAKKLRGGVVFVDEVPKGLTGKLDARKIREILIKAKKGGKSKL

[8] = Luminescence Cell-Based Dose Confirmation HTS to Identify Inhibitors of Platelet Dense Granule Release. [Related pubchem assays: 1663 (Primary HTS), 1678 (Summary of Project)]; format: functional
[9] = HEK-293T viability loss after treatment – luminescence, T-cell screen hits, cytotoxicity control for TCR NF-kB inhibitor project, dose response (AID 489026); format: functional, cell-based;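 also: cells exposed to compound about 14 hours before the viability readout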
[10] = biological target: T3, Luciferin 4-monooxygenase; assay: inhibition of purified Photinus pyralis luciferase – biochemical, dry powder samples, plate reader, dose response (AID 588451)
[11] = test system: H4; assay: inhibitors of control reporter signal in H4 cells – cell-based, plate reader, dry powder samples, counter-screen for prion reporter project, dose response (AID 540255); format: functional; details: Homo sapiens
[12] = test system: H4; assay: Amyloid Precursor 5' UTR neuroblastoma cell reporter line Measured in Cell-Based System Using Plate Reader - 2078-04_Inhibitor_Dose_DryPowder_Activity. [Related pubchem assays (depositor defined):AID488894]; format: functional; details: Homo sapiens
[13] = test system: H4; assay: Inhibitors of Prion Protein 5' UTR mRNA Measured in Cell-Based System Using Plate Reader - 2078-01_Inhibitor_Dose_DryPowder_Activity. [Related pubchem assays (depositor defined):AID488894]; format: functional; details: Homo sapiens
[14] = reduction of Shn3 3'UTR-driven luciferase in osteoblasts – cell-based, Clone20 osteoblasts, firefly luciferase, cherry-picked, dose response (AID 624132); format: functional;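 also: firefly luciferase luminescence from reporter carrying the Shn3 3'UTR in osteoblasts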
[15] = loss of viability in HepG2 cells – cell-based, CellTiter-Glo, cherry-picked, cytotoxicity control for Shn3 inhibitor project, dose response (AID 624134); format: functional
[16] = blockers of HIV-1 envelope-mediated cell-cell fusion – cherry-pick, dose response (AID 652057); format: functional, cell-based
[17] = viability loss in CEM21 cells – cell-based, CellTiter-Glo luminescence, cherry-picked, cytotoxicity control for viral fusion inhibitor project, dose response (AID 652042); format: functional;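 also: potency for signal decrease meaning cytotoxicity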
[18] = blockers of HIV-1 ZM109 envelope-driven cell-cell fusion – HeLa effector, CEM target cells, luciferase, cherry-pick, dose response (AID 652058); format: functional, cell-based;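 also: luciferase signal from HIV-1 Env mediated cell-cell fusion of effector and target cells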
[19] = off-target signal loss in HeLa-CEM21 co-culture – HeLa F-luc CTL cells, cherry-picked, counter-screen for HIV-1 Env fusion inhibitor project, dose response (AID 652040); format: functional, cell-based;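 also: potency for signal decrease marking cytotoxic or nonspecific inhibition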
[20] = HIV-1 AD8 envelope cell-cell fusion blockers – cherry-pick, dose response (AID 652062); format: functional, cell-based;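 also: luciferase signal from cell-cell fusion driven by HIV-1 clade B AD8 Env; potency is for inhibitors of fusion seen as a drop in luminescence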
[21] = Shn3 3'UTR reporter signal decrease – cell-based, Clone20 osteoblasts, firefly luciferase, cherry-pick, set 2, Schnurri-3 inhibitor project, dose response (AID 720490); format: functional;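 also: actives lower the luminescence signal as inhibitors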
[22] = A549 cell cytotoxicity, dose response, cytotoxicity control, plate reader, cherry-pick, antagonist series (AID 743412); format: functional, cell-based
[23] = toxicity toward HepG2 liver cells – cell-based, plate reader, cherry-pick, antagonist series, cytotoxicity control, dose response (AID 743416); format: functional
[24] = blockers of bursicon-stimulated LGR2 cAMP reporter – cell-based, HEK293, CRE-luciferase reporter, cherry pick, set 2, dose response (AID 743343); format: functional;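 also: transfected cells were stimulated with diluted bursicon conditioned medium after compound addition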
[25] = blockade of melanocortin 4 receptor signaling – cell-based, plate reader, cherry pick, counter-screen for LGR2 antagonist project, dose response (AID 743444); format: functional;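 also: transfected HEK 293 cells stimulated with alpha-MSH peptide; potency of inhibitors of the alpha-MSH evoked signal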
[26] = viability loss in HEK293 cells – cell-based, plate reader, cherry-picked samples, cytotoxicity control, dose response (AID 743446); format: functional
[27] = biological target: FAD-linked sulfhydryl oxidase ALR (Homo sapiens, UniProt P55789); assay: ALR-catalysed DTT oxidation blockers – biochemical, H2O2 detection, luminescence, cherry-pick, dose response (AID 493248)
Chain of FAD-linked sulfhydryl oxidase ALR (P55789 whole entry): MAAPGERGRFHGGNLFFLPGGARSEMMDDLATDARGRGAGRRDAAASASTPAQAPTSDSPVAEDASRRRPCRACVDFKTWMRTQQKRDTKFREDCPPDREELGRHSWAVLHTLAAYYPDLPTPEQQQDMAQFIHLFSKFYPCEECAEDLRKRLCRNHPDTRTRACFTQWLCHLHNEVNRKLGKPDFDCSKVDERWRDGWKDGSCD

[28] = biological target: T4, Insulin-degrading enzyme (Homo sapiens, UniProt P14735); assay: recombinant IDE activation, cell-free – biochemical, fluorescence polarization, counter-screen for IDE activator project, dose response (AID 588681)
T4 sequence (P14735 whole entry): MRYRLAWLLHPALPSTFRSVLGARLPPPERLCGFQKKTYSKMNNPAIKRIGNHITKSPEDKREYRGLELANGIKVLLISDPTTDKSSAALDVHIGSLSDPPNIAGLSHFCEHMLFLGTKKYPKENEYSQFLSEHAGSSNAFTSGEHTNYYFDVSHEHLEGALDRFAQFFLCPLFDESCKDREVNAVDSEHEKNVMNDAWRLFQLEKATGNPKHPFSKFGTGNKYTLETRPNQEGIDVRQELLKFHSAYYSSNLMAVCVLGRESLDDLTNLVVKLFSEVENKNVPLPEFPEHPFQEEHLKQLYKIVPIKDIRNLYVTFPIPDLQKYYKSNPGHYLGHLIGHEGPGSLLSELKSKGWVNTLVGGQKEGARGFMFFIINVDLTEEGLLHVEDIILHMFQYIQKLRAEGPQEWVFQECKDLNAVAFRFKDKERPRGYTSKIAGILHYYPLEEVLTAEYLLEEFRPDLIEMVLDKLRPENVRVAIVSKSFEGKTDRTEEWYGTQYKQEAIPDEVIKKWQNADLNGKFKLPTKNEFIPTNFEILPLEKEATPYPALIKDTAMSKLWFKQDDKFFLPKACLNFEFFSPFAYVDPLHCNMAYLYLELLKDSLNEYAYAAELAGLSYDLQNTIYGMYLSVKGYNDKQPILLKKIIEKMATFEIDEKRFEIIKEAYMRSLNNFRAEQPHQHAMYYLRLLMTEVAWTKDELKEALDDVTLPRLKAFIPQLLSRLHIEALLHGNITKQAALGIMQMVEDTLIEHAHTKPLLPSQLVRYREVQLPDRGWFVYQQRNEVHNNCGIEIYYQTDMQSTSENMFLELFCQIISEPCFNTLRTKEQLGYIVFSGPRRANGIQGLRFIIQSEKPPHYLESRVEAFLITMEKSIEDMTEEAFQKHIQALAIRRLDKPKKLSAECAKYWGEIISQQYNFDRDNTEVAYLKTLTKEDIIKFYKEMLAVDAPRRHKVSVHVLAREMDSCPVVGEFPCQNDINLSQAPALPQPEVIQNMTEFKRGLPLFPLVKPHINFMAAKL

[29] = biological target: T4, Insulin-degrading enzyme; assay: cellular IDE activation of Abeta substrate cleavage – fluorescence polarization, HEK cells, dose response (AID 588439); format: functional, cell-based
[30] = test system: HEK293; assay: membrane integrity loss in HEK cells – cell-based, fluorescence, cytotoxicity control for IDE activator project, dose response (AID 588440); format: functional; details: Homo sapiens;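 also: cytotoxicity by LDH release measuring loss of membrane integrity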
[31] = test system: HEK293; assay: optical interference in Abeta FP readout, dose response, artefact control for IDE activator project, biochemical, fluorescence polarization (AID 588442); format: functional, cell-based; details: Homo sapiens
[32] = biological target: Apelin receptor (Homo sapiens, UniProt P35414); assay: apelin receptor antagonists, arrestin read-out – cell-based, luminescent, enzyme-fragment complementation, selectivity assay for CCR6 antagonist project, SAR follow-up (AID 588359); format: functional
Chain of Apelin receptor (P35414 whole entry, the tested form may be a part): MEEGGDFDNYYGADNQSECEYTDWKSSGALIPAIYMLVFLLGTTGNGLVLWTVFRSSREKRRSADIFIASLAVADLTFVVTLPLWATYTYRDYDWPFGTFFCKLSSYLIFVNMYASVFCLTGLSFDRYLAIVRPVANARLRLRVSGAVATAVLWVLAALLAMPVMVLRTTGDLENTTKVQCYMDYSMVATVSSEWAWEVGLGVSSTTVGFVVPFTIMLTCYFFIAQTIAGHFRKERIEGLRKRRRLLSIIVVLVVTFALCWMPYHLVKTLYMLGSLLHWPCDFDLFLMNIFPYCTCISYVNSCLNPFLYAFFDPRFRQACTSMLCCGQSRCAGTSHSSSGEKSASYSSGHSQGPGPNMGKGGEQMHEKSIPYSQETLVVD

[33] = biological target: C-X-C chemokine receptor type 5 (Homo sapiens, UniProt P32302); assay: inhibition of CXCL13-driven CXCR5 beta-arrestin recruitment – cell-based, luminescence, CHO-K1 PathHunter, selectivity assay for CCR6 antagonist project, SAR follow-up (AID 540340); format: functional
Chain of C-X-C chemokine receptor type 5 (P32302 whole entry): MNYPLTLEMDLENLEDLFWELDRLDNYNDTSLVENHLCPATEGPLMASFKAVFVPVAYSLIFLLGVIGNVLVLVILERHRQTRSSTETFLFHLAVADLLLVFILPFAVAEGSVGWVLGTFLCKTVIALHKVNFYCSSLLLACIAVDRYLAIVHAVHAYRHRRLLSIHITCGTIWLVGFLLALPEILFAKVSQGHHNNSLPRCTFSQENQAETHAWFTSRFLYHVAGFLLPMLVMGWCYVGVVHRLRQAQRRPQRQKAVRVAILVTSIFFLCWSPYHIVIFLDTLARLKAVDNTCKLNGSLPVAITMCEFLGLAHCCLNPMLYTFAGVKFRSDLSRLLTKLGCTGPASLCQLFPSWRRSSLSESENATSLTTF

[34] = biological target: T5, C-C chemokine receptor type 6 (Homo sapiens, UniProt P51684); assay: analog antagonism of CCR6 beta-arrestin signaling – cell-based, luminescent beta-arrestin readout, SAR follow-up (AID 540334); format: functional
T5 sequence (P51684 whole entry): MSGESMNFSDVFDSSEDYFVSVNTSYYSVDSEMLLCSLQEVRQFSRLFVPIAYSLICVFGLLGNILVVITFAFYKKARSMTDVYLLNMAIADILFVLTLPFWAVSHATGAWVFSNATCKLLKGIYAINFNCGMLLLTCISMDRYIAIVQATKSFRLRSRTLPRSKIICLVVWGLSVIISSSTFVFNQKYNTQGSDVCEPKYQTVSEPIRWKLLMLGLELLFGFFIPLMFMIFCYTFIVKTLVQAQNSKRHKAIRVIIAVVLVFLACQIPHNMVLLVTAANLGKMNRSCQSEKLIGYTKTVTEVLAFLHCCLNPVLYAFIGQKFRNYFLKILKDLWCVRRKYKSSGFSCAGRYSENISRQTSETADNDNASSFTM

[35] = THP-1 cell cytotoxicity, dose response, cytotoxicity control, set 3 (AID 504852); format: functional; details: Mycobacterium tuberculosis

With `C[C@]12CC[C@@H]3c4ccc(O[C@@H]5O[C@H](C(=O)O)[C@@H](O)[C@H](O)[C@H]5O)cc4CC[C@H]3[C@@H]1C[C@@H](O)[C@@H]2O` the EC50 [1] was > 195 µM (not active), the EC50 [2] was 9.16 µM (active) and the AC50 [3] was 15.7 µM (active).
For `Cc1c(C)c2ccc(OCC(=O)Nc3ccccn3)c(C)c2oc1=O`, the EC50 [4] was 0.36 µM (active), the EC50 [5] was 0.214 µM (active) and the EC50 [1] was < 0.16 µM (active). For the same compound, the EC50 [6] was 0.236 µM (active), the EC50 [7] was 0.629 µM (active) and the EC50 [8] was 2.73 µM (active). For the same compound, the IC50 [9] was > 80 µM (inactive), the AC50 [10] was 0.101 µM (active) and the AC50 [11] was 0.021 µM (active). The AC50 [12] was 0.0103 µM (active), the AC50 [13] was 0.027 µM (active) and the AC50 [14] was 0.416 µM (active). For the same compound, the AC50 [15] was 37.1 µM (active), the AC50 [16] was 1.71 µM (active) and the AC50 [17] was 35 µM (active). The AC50 [18] was 6.61 µM (active), the AC50 [19] was 1.83 µM (active) and the AC50 [20] was 0.429 µM (active). The AC50 [21] was 1.77 µM (active), the AC50 [22] was 33.5 µM (active) and the AC50 [23] was 25.3 µM (active). The AC50 [24] was 0.0802 µM (active), the AC50 [25] was < 0.068 µM (active) and the AC50 [26] was 48.7 µM (active).
In the case of `COc1cccc(CNc2ccc3c(c2)ncn3C(C)C)c1OC`, the AC50 [27] is reported as 2.58 µM (active), the EC50 [28] is reported as > 54.7 µM (inactive) and the EC50 [29] is reported as 43.8 µM (inactive). The IC50 [30] was > 89.2 µM (inactive) and the EC50 [31] was > 55.9 µM (inactive).
In the case of `C/C=C(\C)C(=O)OC1[C@H](OC(C)=O)C2(CO)C(CC1(C)C)C1=CCC3C4(C)CCC(O[C@@H]5O[C@H](C(=O)O)[C@@H](O[C@@H]6O[C@H](CO)[C@@H](O)[C@H](O)[C@H]6O)[C@H](O)[C@H]5O[C@H]5O[C@H](CO)[C@@H](O)[C@H](O)[C@H]5O)[C@](C)(CO)C4CCC3(C)[C@]1(C)C[C@H]2O` (stereo partly specified), the IC50 [32] is reported as 9.07 µM (active), the IC50 [33] is reported as 9.46 µM (inactive) and the IC50 [34] is reported as 7.82 µM (active).
In the case of `CCOC1OC(=O)C(Cl)=C1Nc1ccccc1C` (stereo unspecified), the CC50 [35] is reported as > 100 µM (active).

— ChEMBL document CHEMBL1201862, “PubChem BioAssay data set” (2004)
